Measured values published in patent US20090012150A1, “Stablized Pharmaceutical Composition Comprising an Amorphous Active Substance” (priority 2002, published 2009).
Where two headings read alike, the source gives them in different places.

Conditions: 6 days at 80° C.
Description: Nitrogen of 99% purity (vol/vol) purity was used as an inert gas. The samples were stored at 80° C. for 6 days, and then the assay of impurities was determined by High Performance Liquid Chromatography.
The oxygen content in the vials was determined by gas chromatography with a mass spectrometric detector (GC/MS).
The degradation products were determined by […] Agilent Technologies (Waldbronn, Germany) model HP 1100. Chromatograms were recorded by a UV detector at 250 nm. The column Chromolit Performance RP-18e 100×4.6 mm (Merck, Darmstadt, Germany) and the gradient of mobile phase A: 20 mM ammonium acetate pH 4.0, 5% (v/v) tetrahydrofuran and 25% (v/v) acetonitrile and the gradient of mobile phase B: 20 mM ammonium acetate pH 4.0, 5% (v/v) tetrahydrofuran and 70 (v/v) acetonitrile were used. The composition of the mobile phase was changed so that initially and to minute 2 there was 25% of mobile phase B (75% of mobile phase A), from minute 2 to minute 4.7 the composition of the mobile phase changed linearly to 100% mobile phase B and it remained such to the end of the analysis at minute 5.5. Flow rate of the mobile phase was 7 ml/min. […] The samples of atorvastatin calcium were dissolved in the solvent 200 mM Tris p H 7, 40% (v/v) acetonitrile of the concentration 0.5 mg/ml.

[1] = oxygen content in atmosphere 0.6 %
[2] = oxygen content in atmosphere 2.8 %, hemi calcium salt
[3] = oxygen content in atmosphere 12.2 %, hemi calcium salt
[4] = oxygen content in atmosphere 21.3 %, hemi calcium salt

Structure (SMILES)	Increase in the assay of degradation products in % in reference to starting active substance [1] [%]	Increase in the assay of degradation products in % in reference to starting active substance [2] [%]	Increase in the assay of degradation products in % in reference to starting active substance [3] [%]	Increase in the assay of degradation products in % in reference to starting active substance [4] [%]
CC(C)c1c(C(=O)Nc2ccccc2)c(-c2ccccc2)c(-c2ccc(F)cc2)n1CC[C@@H](O)C[C@@H](O)CC(=O)O.CC(C)c1c(C(=O)Nc2ccccc2)c(-c2ccccc2)c(-c2ccc(F)cc2)n1CC[C@@H](O)C[C@@H](O)CC(=O)O.CC(C)c1c(C(=O)Nc2ccccc2)c(-c2ccccc2)c(-c2ccc(F)cc2)n1CC[C@@H](O)C[C@@H](O)CC(=O)[O-].CC(C)c1c(C(=O)Nc2ccccc2)c(-c2ccccc2)c(-c2ccc(F)cc2)n1CC[C@@H](O)C[C@@H](O)CC(=O)[O-].[Ca+2] (relative stereo) [Amorphous atorvastatin calcium, (R—(R*, R*))-2-(4-fluorophenyl)-β,δ-dihydroxy-5-(1-methylethyl)-3-phenyl-4((phenylamino)carbonyl)-1H-pyrrole-1-heptanoic acid hemi calcium salt]	0	0.13	0.49	0.89
CC(C)c1c(C(=O)Nc2ccccc2)c(-c2ccccc2)c(-c2ccc(F)cc2)n1CC[C@@H](O)C[C@@H](O)CC(=O)O.CC(C)c1c(C(=O)Nc2ccccc2)c(-c2ccccc2)c(-c2ccc(F)cc2)n1CC[C@@H](O)C[C@@H](O)CC(=O)O.CC(C)c1c(C(=O)Nc2ccccc2)c(-c2ccccc2)c(-c2ccc(F)cc2)n1CC[C@@H](O)C[C@@H](O)CC(=O)[O-].CC(C)c1c(C(=O)Nc2ccccc2)c(-c2ccccc2)c(-c2ccc(F)cc2)n1CC[C@@H](O)C[C@@H](O)CC(=O)[O-].[Ca+2] (relative stereo) [Crystalline atorvastatin calcium, (R—(R*, R*))-2-(4-fluorophenyl)-β,δ-dihydroxy-5-(1-methylethyl)-3-phenyl-4((phenylamino)carbonyl)-1H-pyrrole-1-heptanoic acid hemi calcium salt]	0	0	0.02	0.05
